# “Also recorded” adds a separate entry of the source. Where two headings read alike, the source gives them in different places.
# Columns and labels:
# [1] = Plasma stability, rat plasma; format: in vitro ADME; details: rat plasma, 5 μM, 0.5, 1 and 2 hour time points
# Procedure: (§1) The in vitro stability of the test compounds was studied in human, mouse, beagle and rat plasma (plasma was purchased from Bioreclamation). Plasma was diluted to 50% with PBS (pH 7.4). Test compounds were dissolved in DMSO to a final concentration of 10 mM and then diluted to 1 mM in MeOH. Incubations were carried at a test compound concentration of 5 μM with a final DMSO concentration of 2.5%. Plasma (198 μL) was added to 96-well plate and incubated at 37° C. for 30 minutes before the addition of […] of the test compound. The resulting mixture was then incubated at 37° C. for 2 hours. At appropriate time intervals (0, 30, 60 and 120 minutes), aliquots (50 μL) were removed and reactions were terminated by adding 200 μL of acetonitrile with an internal standard. Simultaneously, plasma samples containing Benflourex or Procaine (control compound) were terminated by adding 200 μL of acetonitrile internal standard. The sample plate was centrifuged at 3500 rpm for 45 minutes at 4° C. and the supernatant was transferred to a new plate for analysis by LC/MS-MS (Agilent Model No: HPLC: 1200, MS: 6410). […] A binary gradient consisting of 0.1% formic acid in water and 0.1% formic acid in methanol was used for analyte elution.
# LC3-II/LC3-I = assay: LC3 immunoblotting in Huh-7 cells (autophagy); format: cell-based
# Procedure: The test compound was first solubilized in 100% DMSO as a 50 mM solution, and then diluted 1 to 100 in FBS as a 10× stock solution of 500 μM.
# Huh-7 cells were seeded in 10% FBS DMEM overnight. The cells media were replaced with drug diluted 1 to 10 in DMEM (final concentration 50 μm in 10% FBS DMEM). Four hours after the drug addition, cells were lysed in RIPA buffer. Cell lysates were analyzed by immunoblotting with anti-LC3A/B antibodies (Cell signaling 12741). Data were presented as LC3-II/LC3-I ratio compared to vehicle treated samples.
# The same experimental procedure detailed in Example 11 was used, except that 2 hours after the drug addition, cells were lysed in RIPA buffer, instead of the previously described 4 hours. Cell lysates were again analyzed by immunoblotting with anti-LC3A/B antibodies (Cell Signaling Technology 12741). Data were presented as LC3-II/LC3-I ratio compared to vehicle treated samples.
# This same synergy experiment was repeated in Huh-7 cells after a 4 hour treatment with compound II-2 along with a higher concentration of the individual components (250 μM each of cystamine, EPA or a combination of cystamine and EPA).
# [2] = Oral cannulated rat PK study (portal and jugular vein); format: in vivo, Sprague Dawley rats; details: rat, oral; for AUC(0-t) / Cmax: Sprague Dawley
# Text: The compounds of the invention were solubilized in a mixture of excipients consisting 40% Tween, 50% Peceol, 10% PEG400 and diluted with water to form a self-emulsifying aqueous mixture for oral administration to animals. For this study, Sprague Dawley rats that have been surgically implanted with indwelling jugular vein cannula (JVC) and portal vein cannula (PVC) were used (Agilux, Worcester, Mass.). This approach using double-cannulated rats allowed the measurement of the drug concentration that was delivered in the portal vein as well as the drug concentration that was present in the peripheral. For the PK study, serial blood collection was carried out at both the portal and jugular vein at the following time points: 10, 20, 40 min and 1, 2, 4 and 6 hours post dose. The bioanalytical portion of the PK study was carried out using an LC/MS/MS system (Agilent Model No: HPLC: 1200, MS: 6410) and analyzed with the appropriate software (WinNonlin Phoenix 64 6.3.0 395).
# ΔF508 CFTR = ΔF508 CFTR (Homo sapiens, UniProt P13569, DEL508-508); assay: Ussing chamber short circuit current in Fisher Rat Thyroid epithelial cells overexpressing ΔF508-CFTR; format: cell-based; design: expressed in transfected cells; host or cells: Fisher Rat Thyroid (FRT) epithelial cells, stably transfected; details: FRT cells, 10 μM, 4 hours
# Chain of ΔF508 CFTR (P13569 with tags, fused parts or gaps DEL508-508): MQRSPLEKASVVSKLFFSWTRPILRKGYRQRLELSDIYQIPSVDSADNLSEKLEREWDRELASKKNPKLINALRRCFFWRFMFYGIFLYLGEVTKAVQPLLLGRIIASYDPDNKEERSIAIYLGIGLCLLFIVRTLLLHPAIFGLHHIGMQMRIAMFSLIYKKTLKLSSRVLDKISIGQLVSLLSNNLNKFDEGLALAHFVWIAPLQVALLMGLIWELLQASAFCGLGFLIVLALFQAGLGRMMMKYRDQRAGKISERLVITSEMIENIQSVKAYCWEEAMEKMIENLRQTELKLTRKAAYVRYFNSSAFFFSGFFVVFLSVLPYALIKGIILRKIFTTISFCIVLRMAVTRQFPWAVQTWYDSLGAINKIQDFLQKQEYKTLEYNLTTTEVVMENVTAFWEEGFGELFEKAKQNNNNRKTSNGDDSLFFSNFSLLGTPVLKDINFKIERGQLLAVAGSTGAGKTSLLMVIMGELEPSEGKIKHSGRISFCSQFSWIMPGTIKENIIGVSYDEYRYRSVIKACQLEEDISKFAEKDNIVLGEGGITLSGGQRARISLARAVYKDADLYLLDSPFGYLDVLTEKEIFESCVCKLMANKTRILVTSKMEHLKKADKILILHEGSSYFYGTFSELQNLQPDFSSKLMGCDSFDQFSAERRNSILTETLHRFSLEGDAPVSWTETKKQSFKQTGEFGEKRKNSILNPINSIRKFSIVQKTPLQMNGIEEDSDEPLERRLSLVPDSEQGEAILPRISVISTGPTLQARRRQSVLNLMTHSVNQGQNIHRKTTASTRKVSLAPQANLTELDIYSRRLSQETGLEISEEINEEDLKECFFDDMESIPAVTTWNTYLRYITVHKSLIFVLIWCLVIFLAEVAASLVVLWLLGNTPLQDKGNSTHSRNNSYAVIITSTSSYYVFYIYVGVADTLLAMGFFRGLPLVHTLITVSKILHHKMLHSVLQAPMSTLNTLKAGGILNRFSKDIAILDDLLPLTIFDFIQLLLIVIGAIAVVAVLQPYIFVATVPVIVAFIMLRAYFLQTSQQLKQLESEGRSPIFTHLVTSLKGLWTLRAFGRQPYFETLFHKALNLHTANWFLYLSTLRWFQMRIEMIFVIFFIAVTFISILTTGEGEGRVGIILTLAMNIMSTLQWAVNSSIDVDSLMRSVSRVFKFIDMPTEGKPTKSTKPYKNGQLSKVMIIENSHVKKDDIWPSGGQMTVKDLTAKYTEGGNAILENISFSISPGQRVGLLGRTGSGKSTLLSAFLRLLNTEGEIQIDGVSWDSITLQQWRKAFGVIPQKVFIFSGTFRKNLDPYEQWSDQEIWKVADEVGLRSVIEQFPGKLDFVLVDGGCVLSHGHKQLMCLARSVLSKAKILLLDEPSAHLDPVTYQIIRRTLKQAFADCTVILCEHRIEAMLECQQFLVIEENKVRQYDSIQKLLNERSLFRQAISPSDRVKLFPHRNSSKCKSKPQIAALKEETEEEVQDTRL
# Procedure: The most prevalent disease causing mutation of the CF transmembrane conductance regulator (CFTR) chloride channel is the deletion of phenylalanine at position 508 in the primary sequence of CFTR (ΔF508-CFTR). This mutation causes a trafficking defect resulting in a severe reduction of ΔF508-CFTR protein at the cell surface. The trafficking defect can be corrected by incubation at low temperature (27° C. overnight) or pharmacologically by small molecules and CFTR correctors. Chloride transport function of Fisher Rat Thyroid (FRT) epithelial cells overexpressing ΔF508-CFTR in monolayers grown on Snapwell™ filter inserts will be monitored as the CFTR agonist evoked short circuit (ISC) current output of an Ussing epithelial voltage clamp apparatus. An objective of this study is to measure the ability of test compounds to restore function to defective ΔF508-CFTR in FRT epithelial cell monolayers.
# Measurement of corrector efficacy is divided into two phases. The initial phase is incubation of epithelia with the test compounds for a period of time (that can range from 2 hours to one or two days) in a 37° C. incubator and the second phase is measurement of epithelial ΔF508-CFTR chloride channel current with an epithelial voltage clamp (Ussing assay). The short circuit current (ISC) is measured under short circuit conditions (0 mV transepithelial potential). The ISC magnitude is an index of corrector efficacy and is compared to vehicle and positive control.
# Cryopreserved FRT cells stably transfected with ΔF508-CFTR cDNA (Pedemonte et al. (2005) J. CLIN. INVEST., 115, p. 2564-2571) were expanded and plated on Snapwell™ filters for measurement of short circuit current in an Ussing apparatus (Physiologic Instruments, Inc., Sand Diego, Calif.). Cells were grown in Coon's modification of Ham's F-12 media supplemented with zeocin and G-418.
# To conduct the assay, a compound of the invention was solubilized as follows: • 1) Prepare 25 mM stock solution in 100% DMSO. • 2) Dilute 12 μL of 25 mM stock solution in 1.20 mL of FBS to make 250 μM intermediate dilution 10× stock (1% DMSO, 99% FBS). Gently vortex all solutions until the solution becomes clear. • 3) Prepare final dilution of 10 μM in 10 mL of Coon's media per well (4 wells×2 mL per well bottom+0.2 mL per insert top=8.8 mL and 1.2 mL reserve for handling losses) by addition of 400 μL of 10× stock and 600 μL of 10× carrier (1% DMSO, 99% FBS) to 9000 μL of Coon's media.
# For this example, the test compound was solubilized and added to the appropriate inserts of Ussing chambers (n=4 for each test compound, final test concentration of 10 μM). A DMSO vehicle control and a positive control (VX-809 at 3 μM) were also used. For this particular example, all the test articles, including the positive control, were incubated with the cells for a period of 4 hours. The FRT cell monolayers grown on Snapwell™ filter inserts were transferred to Physiologic Instruments Ussing recording chambers (Physiologic Instruments, Inc., San Diego, Calif.) and superfused with HB-PS on the basolateral side and 78CF-PS on the apical side. One or more 6-channel or 8-channel Physiologic Instruments VCC MC6 or VCC MC8 epithelial voltage clamps were then used in combination to record the short circuit current (ISC) during the entire run. To initiate the ISC measurement, amphotericin (100 μM) was added to the basolateral side of the Snapwell™ filter insert to permeabilize the epithelial cells for 15 min. Forskolin (10 μM), IBMX (100 μM), Genistein (20 μM) and the CFTRinh-172 (20 μM) were added sequentially after the following incubation periods (15 min, 20 min, 10 min, 15 min and 15 min respectively). Data acquisition and analyses were performed using iWorx data acquisition hardware and Labscribe 2 software (iWorx, Dover, N.H.). […]
# [3] = Plasma stability, mouse plasma; format: in vitro ADME; details: 5 μM, 0.5, 1 and 2 hour time points
# Procedure: as §1
structure (smiles),measurement,setting,value
"CC/C=C\C/C=C\C/C=C\C/C=C\C/C=C\CCCC(=O)NCCSSCCNC(=O)c1cccnc1 [II-2, N-(2-((2-((5Z,8Z,11Z,14Z,17Z)-icosa-5,8,11,14,17-pentaenamido)ethyl)disulfanyl)ethyl)nicotinamide]",plasma stability (parent compound remaining),[1],unstable; also recorded: not stable
same,autophagy marker LC3-II (lower band) levels,"LC3-II/LC3-I; Huh cells, 25 and 50 μM, 4 hours",increase
same,ratio of LC3-II to LC3-I compared to vehicle control,"LC3-II/LC3-I; Huh-7, 50 μM, 2 hours",two-fold increase
same,autophagy marker LC3-II (lower band),"LC3-II/LC3-I; Huh-7, 50 μM, 2 hours, compared with cystamine, EPA or their combination (50 μM each)",synergistic increase
same,activation of autophagy (ratio of LC3-II to LC3-I),"LC3-II/LC3-I; Huh-7, 50 μM, 4 hour treatment",synergistic and higher degree of activation of autophagy
same,ratio of LC3-II to LC3-I,"LC3-II/LC3-I; Huh-7 cells, 25 μM, 4 hours",increased
same,AUC(0-t),"[2]; jugular vein blood (peripheral), systemic circulation (jugular vein), read-out: peripheral AUClast",0.443 ± 0.221 ng·h/mL
same,Cmax,"[2]; jugular vein blood (peripheral), systemic circulation (jugular vein), read-out: peripheral Cmax",0.889 ± 0.33 ng/mL
same,AUC(0-t),"[2]; portal vein blood, portal vein, read-out: portal AUClast",12.5 ± 6.5 ng·h/mL
same,Cmax,"[2]; portal vein blood, portal vein, read-out: portal Cmax",20.8 ± 9.45 ng/mL
same,degradation of the parent compound upon oral dosing,[2],significant amount of the parent compound was degraded
same,peripheral AUClast,[2]; as restated in Example 23,0.889 ng·h/mL
same,functional rescue of CFTR (short circuit current vs vehicle),ΔF508 CFTR,able to functionally rescue CFTR function
same,plasma stability (parent compound remaining),[3],unstable
